What all share (assay type): cell-based
Data set [1] concerns LPS-induced NO production in RAW 264.7 macrophages. Description: Inhibition of LPS-induced NO production in RAW 264.7 macrophages (Griess reagent). Conditions: for IC50: LPS-induced RAW 264.7 macrophages, 4 h pretreatment, then 48 h with 2 μg/mL LPS. The procedure: (§1) Then, 100-μL aliquots of the exponentially growing RAW 264.7 cells were seeded in 96-well culture plates at 1 × 10^4 cells/well at 37 °C for overnight in DMEM medium with 0.1% FBS. The culture medium was replaced by fresh free-FBS medium and cells were pretreated with different concentrations (0, 1, 3, 10, 30, 100, 300, 1000 μM) of samples for 4 h. Thereafter, the medium with samples was removed and then incubated for 48 h with or without 2 μg/mL LPS 10% FBS DMEM. The nitrite concentration (NO production) in the culture supernatant was measured using Nitric Oxide assay kit mainly containing Griess reagent. The absorbance was measured at 540 nm using a microplate reader (M5). The amount of NO was calculated from a standard curve created using sodium nitrite with known concentrations. The cell viability was evaluated by SRB colorimetric assay.

In the next data set the test system is NF-κB. Description: NF-κB luciferase reporter assay in TNF-α-induced RAW264.7 cells. To be noted: 8 h treatment, TNF-α 50 ng/mL; for inhibition of the NF-κB pathway (result in words): 1-50 µM; for inhibition at 20 µM: Mus musculus, read-out: NF-κB-luciferase inhibitory percentage. Here is the method:
RAW 264.7 cells (10,000 cells/well) were placed in a 96-well plate and the cells were then transfected with pNF-κB-Luc expression plasmid using a mixture of plasmid and lipofectamin 2000 PLUS in the Opti-MEM® I Reduced Serum Medium according to manufacturer’s instructions (Life Technologies, Carlsbad, CA, USA). After 12 h, the cells were co-incubated with the active samples (1, 5, 10, 20, 50 µM) and TNF-α. Parthenolide (P) was used as positive control. NF-κB was induced by adding TNF-α (50 ng/mL, delivered in PBS) to the treated wells and the induced control wells. After an additional 8 h, Bright-Glo luciferase reagent (Beyotime) was added to each well (100 μL) and the plate was allowed to stand for two minutes. Luminescence measurements with a relative light unit (RLU) were then obtained using a Fluoroskan Ascent multiple microplate reader (Molecular Device, Sunnyvale, CA, USA). Each experiment was performed in biological triplicate (at minimum) with three technical replicates per experiment.
Figure 3 Compound 1 inhibited TNF-α-induced NF-κB activation by NF-κB-luciferase inhibition assay in RAW264.7 cells. 1 and parthenolide (P, positive control) were dosed to RAW264.7 cells containing a stably transfected NF-κB luciferase reporter and stimulated with TNF-α (50 ng/mL) for 8 h (except for a non-induced control, Non-Ind). […] Mean ± standard deviation values are shown with more than three replicates.

Data set [2] in a line: Cytotoxicity / cell viability by SRB colorimetric assay. Conditions: mouse, RAW 264.7 cells, inhibition of cell viability of samples-treated RAW264.7 cells. Here is the method: as §1
The test system of data set [3] is NF-κB p65 and p50 subunit. Description: Western blotting of p65 and p50 phosphorylation in TNF-α-induced RAW264.7 cells. Conditions: 50, 10 and 1 µM, 8 h, TNF-α 50 ng/mL. The procedure:
RAW 264.7 cells were seeded in a 24-well plate at 5 × 10^4 cells/well. After cells adherence for overnight, the test compound 1 (50, 10 and 1 µM) or parthenolide (10 µM) and TNF-α (50 ng/mL) were added to the wells and incubated for 8 h. Then, cell pellets were collected and lysed with RIPA lysis buffer containing 0.5 mM phenylmethylsulfonyl fluoride (PMSF) and a protease inhibitor cocktail. The protein concentration of cell samples was analyzed by using the BCA method. Equal amount proteins of each sample were electrophoresed on 12% separating gel and 4% stacking gel and electrotransferred onto an NC membrane. After incubation with appropriate primary and secondary antibodies of p65 and p50, protein blots were detected by using ECL solution and ChemiDoc XRS+ imaging system (Bio-Rad, Hercules, CA, USA). β-actin was used as loading control.  Figure 4 Compound 1 blocks TNF-α-induced NF-κB activation through p65 and p50 phosphorylation in RAW264.7 cells. After treatment with 1 and parthenolide (P) at the indicated concentrations for 8 h, total cell lysates were tested by western blot experiments.

Structures are written as SMILES.

Turning to `Cc1ccc(C2=NO[C@]3(C2)C(=O)O[C@@H]2C[C@@]4(C)C(=O)CC[C@H](C)C4=C[C@@H]23)cc1` [Compound 6], the IC50 in data set [1] (Mus musculus, RAW264.7) was greater than 1000 µM.

With `N=C(N)NN` [Aminoguanidine, reference compound], the IC50 in data set [1] turned out to be 10.9 ± 1.5 µM.

In the case of `C=C1C(=O)O[C@H]2[C@H]1CC/C(C)=C/CC[C@@]1(C)O[C@@H]21` [parthenolide, Parthenolide, reference compound], in the data set with NF-κB, the “inhibition of the NF-κB pathway (result in words)” value is given as “comparably potent”.

As to `C[C@@H]1C(=O)O[C@@H]2C[C@]3(C)C(=C[C@H]12)[C@@H](C)CC[C@H]3O` [Compound 5], the IC50 in data set [1] (Mus musculus, RAW264.7) was greater than 1000 µM.

Consider `C=C1C(=O)O[C@@H]2C[C@]3(C)C(=C[C@H]12)[C@@H](C)CC[C@H]3OC(C)=O` [Compound 3], for which, in data set [1] (Mus musculus, RAW264.7), the IC50 was determined as 46.5 ± 5.6 µM. In data set [2], this compound came in with a half-inhibitory concentration (IC50) at 4 h greater than 50 µM.

Regarding `C=C1C(=O)O[C@@H]2C[C@]3(C)C(=C[C@H]12)[C@@H](C)CC[C@H]3OC(=O)CCC(=O)O` [Compound 4], in data set [1] (Mus musculus, RAW264.7), the IC50 came out at 39.6 ± 5.7 µM. Also, the half-inhibitory concentration (IC50) at 4 h in data set [2] was greater than 50 µM.

For `C=C1C(=O)O[C@@H]2C[C@@]3(C)C(=O)CC[C@H](C)C3=C[C@H]12` [Compound 2], the IC50 in data set [1] (Mus musculus, RAW264.7) amounted to 36.1 ± 3.8 µM. The compound also returned an IC50 at 4 h in data set [2] of 34.5 ± 5.8 µM. The inhibition at 20 µM in the data set with NF-κB amounted to 55%.

`C=C1C(=O)O[C@@H]2C[C@]3(C)C(=C[C@H]12)[C@@H](C)CC[C@H]3O` [Compound 1, 1β-Hydroxy alantolactone]: the IC50 in data set [1] (Mus musculus, RAW264.7) was determined as 5.61 ± 0.34 µM. The “potency against NO production relative to 2–4” value in data set [1] (ratio of IC50 values, 1 versus 2–4) is reported as 6.5–8.4 fold. The IC50 at 4 h in data set [2] is greater than 50 µM. Also, in the data set with NF-κB, the “inhibition of the NF-κB pathway (result in words)” value was “dose-dependent inhibition” and the inhibition at 20 µM is 75%. The “TNF-α-induced phosphorylation of NF-κB p65 and p50 subunit (result in words)” value in data set [3] was “dose-dependently suppressed”.

The record behind these values is paper PMC6150205, “Semisynthesis, an Anti-Inflammatory Effect of Derivatives of 1β-Hydroxy Alantolactone from Inula britannica” (Molecules : A Journal of Synthetic Chemistry and Natural …, 2017).
